Results reported in patent publication US7115600B2, “Histamine-3 receptor modulators” (Pfizer Inc., priority 2004, dated 2006).
pKi: −log10 of the molar value.

Each compound was assayed against T1, rat histamine H3 receptors (Rattus norvegicus, UniProt Q9QYN8) (assay: Rat Histamine H3 Receptor Binding). Settings: frozen rat frontal brain membranes; radioligand 1 nM 3H-N-methyl-histamine; 1 hour incubation; read-out: rH3 Ki.
T1 construct: Frozen rat frontal brain or frozen human post-mortem frontal brain is homogenized; from tissue; host or cells: rat frontal brain membranes
T1 sequence (Q9QYN8 whole entry): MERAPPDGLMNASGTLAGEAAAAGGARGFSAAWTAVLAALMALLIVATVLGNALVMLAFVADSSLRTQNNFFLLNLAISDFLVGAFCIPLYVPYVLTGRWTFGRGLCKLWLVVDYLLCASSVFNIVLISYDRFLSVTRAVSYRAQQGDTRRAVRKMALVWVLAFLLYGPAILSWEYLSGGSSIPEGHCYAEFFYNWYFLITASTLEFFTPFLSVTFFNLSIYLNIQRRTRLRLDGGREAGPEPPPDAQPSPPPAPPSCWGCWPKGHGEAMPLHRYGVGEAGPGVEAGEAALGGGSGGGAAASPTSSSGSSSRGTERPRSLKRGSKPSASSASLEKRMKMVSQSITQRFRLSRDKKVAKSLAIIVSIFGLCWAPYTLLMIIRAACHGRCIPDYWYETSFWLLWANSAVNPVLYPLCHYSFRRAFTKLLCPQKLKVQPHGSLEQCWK
Procedure: The in vitro affinity of the compounds in the present invention at the rat or human histamine H3 receptors can be determined according to the following procedure. Frozen rat frontal brain or frozen human post-mortem frontal brain is homogenized in 20 volumes of cold 50 mM Tris HCl containing 2 mM MgCl2 (pH to 7.4 at 4 degrees C.). The homogenate is then centrifuged at 45,000 G for 10 minutes. The supernatant is decanted and the membrane pellet resuspended by Polytron in cold 50 mM Tris HCl containing 2 mM MgCl2 (pH to 7.4 at 4 degrees C.) and centrifuged again. The final pellet is resuspended in 50 mM Tris HCl containing 2 mM MgCl2 (pH to 7.4 at 25 degrees C.) at a concentration of 12 mg/mL. Dilutions of compounds are made in 10% DMSO/50 mM Tris buffer (pH 7.4) (at 10× final concentration, so that the final DMSO concentration is 1%). Incubations are initiated by the addition of membranes (200 microliters) to 96 well V-bottom polypropylene plates containing 25 microliters of drug dilutions and 25 microliters of radioligand (1 nM final concentration 3H—N-methyl-histamine). After a 1 hour incubation, assay samples are rapidly filtered through Whatman GF/B filters and rinsed with ice-cold 50 nM Tris buffer (pH 7.4) using a Skatron cell harvester. Radioactivity is quantified using a BetaPlate scintillation counter. The percent inhibition of specific binding can then be calculated.
`CC1CCCN(C[C@H]2C[C@H](c3ccc(CN4CCCC4)cc3)C2)C1` (relative stereo) [Example 118, trans-3-Methyl-1-[3-(4-pyrrolidin-1-ylmethyl-phenyl)-cyclobutylmethyl]-piperidine] was tested, and the pKi was 9.19. `Cc1cc(C)nc(OC[C@H]2C[C@H](c3ccc(CN4CCCC4)cc3)C2)n1` [Example 55, trans-4,6-Dimethyl-2-[3-(4-pyrrolidin-1-ylmethyl-phenyl)-cyclobutylmethoxy]-pyrimidine] was tested, and the pKi was 7.03. Compound `c1ccc(OCC2CC(c3ccc(CN4CCCC4)cc3)C2)nc1` (stereo not shown) [Example 42, 2-[3-(4-Pyrrolidin-1-ylmethyl-phenyl)-cyclobutylmethoxy]-pyridine] has a pKi of 6.88. For `c1ccc(COCC2CC(c3ccc(CN4CCCC4)cc3)C2)cc1` (stereo not shown) [Example 2, 1-[4-(3-Benzyloxymethyl-cyclobutyl)-benzyl]-pyrrolidine], the pKi was 7.01. Compound `COc1cc(OCC2CC(c3ccc(CN4CCCC4)cc3)C2)nc(OC)n1` (stereo not shown) [Example 46, 2,4-Dimethoxy-6-[3-(4-pyrrolidin-1-ylmethyl-phenyl)-cyclobutylmethoxy]-pyrimidine] has a pKi of 6.98. `CC1CC(C)CN(C[C@H]2C[C@H](c3ccc(CN4CCCC4)cc3)C2)C1` (stereo partly drawn) [Example 114, trans-3,5-Dimethyl-1-[3-(4-pyrrolidin-1-ylmethyl-phenyl)-cyclobutylmethyl]-piperidine] was tested, and the pKi was 9.32. `OC1(c2ccc(CN3CCCC3)cc2)CC(COCc2ccccc2)C1` (stereo not shown) [Example 1, 3-Benzyloxymethyl-1-(4-pyrrolidin-1-ylmethyl-phenyl)-cyclobutanol] was tested, and the pKi was 8.08. Compound `Cc1cnc(OC[C@H]2C[C@@H](c3ccc(CN4CCCC4)cc3)C2)nc1C1CCNC1` (relative stereo) [Example 88, cis-5-Methyl-4-pyrrolidin-3-yl-2-[3-(4-pyrrolidin-1-ylmethyl-phenyl)-cyclobutylmethoxy]-pyrimidine] has a pKi of 8.42. With `CCN(CCO)C[C@H]1C[C@H](c2ccc(CN3CCCC3)cc2)C1` [Example 113, trans-2-{Ethyl-[3-(4-pyrrolidin-1-ylmethyl-phenyl)-cyclobutylmethyl]-amino}-ethanol] the pKi was 8.35. For `CCc1cnc(OC[C@H]2C[C@H](c3ccc(CN4CCCC4)cc3)C2)nc1` [Example 57, trans-5-Ethyl-2-[3-(4-pyrrolidin-1-ylmethyl-phenyl)-cyclobutylmethoxy]-pyrimidine], the pKi was 7.00. `c1ccc(C2CCCN2C[C@H]2C[C@@H](c3ccc(CN4CCCC4)cc3)C2)nc1` (relative stereo) [Example 105, cis-2-{1-[3-(4-Pyrrolidin-1-ylmethyl-phenyl)-cyclobutylmethyl]-pyrrolidin-2-yl}-pyridine] was tested, and the pKi was 8.27. `CC1CCCN1C[C@H]1C[C@H](c2ccc(CN3CCCC3)cc2)C1` (relative stereo) [Example 120, trans-2-Methyl-1-[3-(4-pyrrolidin-1-ylmethyl-phenyl)-cyclobutylmethyl]-pyrrolidine] showed a pKi of 8.47. Compound `Cc1cnc(OC[C@H]2C[C@@H](c3ccc(CN4CCCC4)cc3)C2)nc1C1CCCNC1` (relative stereo) [Example 59, cis-5-Methyl-4-piperidin-3-yl-2-[3-(4-pyrrolidin-1-ylmethyl-phenyl)-cyclobutylmethoxy]-pyrimidine] has a pKi of 7.58. Compound `CC1CCCC(C)N1C[C@H]1C[C@H](c2ccc(CN3CCCC3)cc2)C1` (stereo partly drawn) [Example 121, trans-2,6-Dimethyl-1-[3-(4-pyrrolidin-1-ylmethyl-phenyl)-cyclobutylmethyl]-piperidine] has a pKi of 8.55. Compound `Cc1ccc(COCC2CC(c3ccc(CN4CCCC4)cc3)C2)cc1` (stereo not shown) [Example 27, 1-{4-[3-(4-Methyl-benzyloxymethyl)-cyclobutyl]-benzyl}-pyrrolidine] has a pKi of 7.13. `c1cc([C@H]2C[C@@H](CN3CCCC3)C2)ccc1CN1CCCC1` [Example 103, cis-1-[3-(4-Pyrrolidin-1-ylmethyl-phenyl)-cyclobutylmethyl]-pyrrolidine] showed a pKi of 8.41. `c1cc(C2CCNC2)nc(OC[C@H]2C[C@@H](c3ccc(CN4CCCC4)cc3)C2)n1` (relative stereo) [Example 65, cis-4-Pyrrolidin-3-yl-2-[3-(4-pyrrolidin-1-ylmethyl-phenyl)-cyclobutylmethoxy]-pyrimidine] gave a pKi of 8.14. `Cc1cnc(OC[C@H]2C[C@@H](c3ccc(CN4CCCC4)cc3)C2)nc1C1CCNCC1` [Example 81, cis-5-Methyl-4-piperidin-4-yl-2-[3-(4-pyrrolidin-1-ylmethyl-phenyl)-cyclobutylmethoxy]-pyrimidine] gave a pKi of 7.24. In the case of `COC[C@@H]1CCCN1C[C@H]1C[C@H](c2ccc(CN3CCCC3)cc2)C1` [Example 128, trans-(S)-2-Methoxymethyl-1-[3-(4-pyrrolidin-1-ylmethyl-phenyl)-cyclobutylmethyl]-pyrrolidine], the pKi was 8.05. `N#Cc1cccc(COCC2CC(c3ccc(CN4CCCC4)cc3)C2)c1` (stereo not shown) [Example 5, 3-[3-(4-Pyrrolidin-1-ylmethyl-phenyl)-cyclobutylmethoxymethyl]-benzonitrile] was tested, and the pKi was 7.05. `CN(C[C@H]1C[C@H](c2ccc(CN3CCCC3)cc2)C1)C1CCCCC1` [Example 115, trans-Cyclohexyl-methyl-[3-(4-pyrrolidin-1-ylmethyl-phenyl)-cyclobutylmethyl]-amine] gave a pKi of 8.84. Work on `Cc1cc(C2CCNCC2)nc(OC[C@H]2C[C@@H](c3ccc(CN4CCCC4)cc3)C2)n1` [Example 77, cis-4-Methyl-6-piperidin-4-yl-2-[3-(4-pyrrolidin-1-ylmethyl-phenyl)-cyclobutylmethoxy]-pyrimidine] yielded a pKi of 7.37. For `N#Cc1ccc(COCC2CC(c3ccc(CN4CCCC4)cc3)C2)cc1` (stereo not shown) [Example 7, 4-[3-(4-Pyrrolidin-1-ylmethyl-phenyl)-cyclobutylmethoxymethyl]-benzonitrile], the pKi was 7.00. In the case of `Cc1ccc(S(=O)(=O)OC[C@H]2C[C@H](c3ccc(CN4CCCC4)cc3)C2)cc1` [Example 48, trans-Toluene-4-sulfonic acid 3-(4-pyrrolidin-1-ylmethyl-phenyl)-cyclobutylmethyl ester], the pKi was 7.01. In the case of `FC(F)(F)c1cc(-c2ccccc2)nc(OC[C@H]2C[C@@H](c3ccc(CN4CCCC4)cc3)C2)n1` [Example 76, cis-4-Phenyl-2-{[3-(4-pyrrolidin-1-ylmethyl-phenyl)-cyclobutylmethyl]oxy}-6-trifluoromethyl-pyrimidine], the pKi was 8.72.
